Source: patent US20220119446A1, “BIOMARKERS AND TREATMENT OF NEURONAL INJURY AND NEURODEGENERATION” (Board of Supervisons of Louisiana State University and …, priority 2018, published 2022)
Entries after “also recorded” stand apart in the source; their conditions may differ. * marks the point of attachment. Boc = CC(C)(C)OC(=O)*

Legend:
[1] = system: rats subjected to MCAo; experiment: Transient middle cerebral artery occlusion (MCAo): behavioral tests, neurological score; assay type: in vivo, rat; details: for neuronal damage / neuroprotection in stroke model (tissue and behavioral): rat MCAo, summary statements
Text: In certain embodiments, Male Sprague-Dawley rats (290-320 g; Charles River Lab, Wilmington, Mass., USA) are used for in vivo studies. For all surgical procedures, animals can be fasted and anesthesia can be induced with 3.5% isoflurane and 70% nitrous oxide and 30% oxygen. Animals can be orotracheally intubated; given atropine for secretions, pancuronium for immobilization; ventilated mechanically on a humidified mixture of 70% nitrous oxide, 1.0-1.5% isoflurane and a balance of oxygen. A femoral artery and vein can be catheterized for continuous blood pressure monitoring and periodic blood sampling for arterial gases and pH. PCO2 can be maintained at 35-40 mm Hg and P02 at 105-120 mm Hg by ventilator adjustments. Rectal temperature can be measured with a thermistor and maintained with a heating lamp at 37.0-37.5° C. Cranial (temporalis muscle) temperature also can be monitored and regulated with a separate warming lamp at 36.2-36.7° C.
(§1) The right MCA can be occluded for 2 h by intraluminal filament, as described previously (Belayev et al. 2011). Briefly, the right common carotid artery (CCA) and external carotid artery (ECA) can be exposed through midline neck incision, and then completely isolated from the surrounding nerves. The occipital branches of the ECA and pterygopalatine artery can be ligated. A 4-cm of 3-0 nylon filament, coated with poly-L-lysine can be advanced to the origin of MCA through the proximal ECA via internal carotid artery. The filament can be inserted 20 to 22 mm from the bifurcation of the CCA, according to the animal's body weight. The neck incision can then be closed, and the rats can be returned to their cages. […]
In certain embodiments, behavioral tests are conducted before, during MCAo (at 60 min), and then at 24 h, 48 h, 72 h, or 7 days after MCAo by an investigator blinded to the experimental groups. […] In embodiments, the severity of stroke injury is assessed by behavioral examination of each rat at 60 min after onset of MCAo. […]

[2] = system: rats subjected to MCAo; experiment: Transient MCAo: MRI of lesion volume; assay type: in vivo; details: rat, 2 h MCAo, Box5 IV 1 h later, day 7
Description: as §1, with “cages. After about 2 h of MCAo, the rats can be re-anesthetized with the same anesthetic combination and the intraluminal filament can be gently removed.” for “cages.”
In embodiments, high-resolution ex vivo magnetic resonance imaging (MRI) is performed on 4% paraformaldehyde-fixed brains at each time point (days 1, 3 and 7) using an 11.7T Bruker Advance 8.9 cm horizontal bore instrument equipped with an 89 mm (ID) receiver coil (Bruker Biospin, Billerica, Mass., USA). T2-weighted images (T2WI), diffusion weighted images (DWI), 3D volumes and apparent diffusion coefficient (ADC) maps can be collected and analyzed as previously described and known in the art (Obenaus et al. 2011). […]

In the case of “t-Boc-NH-Met-Asp-Gly-Cys-Glu-Leu-CO2H (Boc-MDGCEL-OH) [Box5]”, the “neuronal damage / neuroprotection in stroke model (tissue and behavioral)” value [1] is reported as “significantly decreased; also recorded: beneficious at the behavioral level as well as in the reduction of stroke damage; also recorded: protection at the neurological/behavioral level as well as by reduction of stroke damage”, the “neuronal damage / neuroprotection in stroke model (tissue and behavioral)” value ([1]; listed as BOX5) is reported as “remarkable neuroprotection” and the “neurological score (total, tactile and proprioceptive placing)” value ([1]; rat, 2 h MCAo, IV 1 h later, DHA 5 mg/kg or Box5 (1 mg/kg; 400 μg), days 1, 2, 3, 7, versus saline) is reported as “remarkable similarity to that obtained by DHA treatment; also recorded: improvement in neurological score; also recorded: resembling DHA treatment; also recorded: neurological protection remarkable similar to that obtained by DHA treatment”. The “MRI lesion (infarct) volume” value [2] was “steep decreased in the infarcted volume; also recorded: resembling DHA treatment; also recorded: reduces stroke size; also recorded: decreased volume of brain damage”.
